In US20110081428A1, “Use of thioflavin-like compounds to increase life span and/or health span” (priority 2009, published 2011):
“Also recorded” adds a separate entry of the source.

What was measured:
[1] = test system: SKN-1 fusion protein [CF2189 (skn-1::GFP)]; assay: SKN-1::GFP localization; type: in vivo, Caenorhabditis elegans; details: ThT treatment
Description: (§1) For fluorescent microscopy, TJ356 zIs356 IV [daf-16::daf-16-gfp+rol-6] or CF2189 Is001(skn-1::gfp+rol-6) were paralyzed with 1 mM levamisole mounted on 1% agarose pads and imaged using Olympus BX51 (60× objective) and HCImage software (Hamamatsu). For immunofluorescence, N2, […], CB1157 unc-54(e1157) or CL4176 dvIs27 [myo-3::Aβ(3 to 42)-let 3′UTR(pAF29); pRF4 (rol-6(su1006))] worms were treated for 24-36 h with or without 50 μM ThT at 25° C. After this period the worms were collected, rinsed, and fixed in 4% paraformaldehyde overnight. […] Paramyosin and perlecans were detected with primary monoclonal antibodies 5-23 and MH3 (developed by Henry Epstein and Robert H. Waterston and obtained from the Developmental Studies Hybridoma Bank developed under the auspices of the NICHD and maintained by The University of Iowa, Department of Biology, Iowa City, Iowa 52242) and AlexaFluor 633 goat anti-mouse (Molecular Probes) as secondary antibody. Soluble oligomers and Aβ peptide were detected with anti polyclonal All (Invitrogen) and 6E10 monoclonal (Covance) primary antibodies, respectively, with AlexaFluor 568 goat anti-rabbit and AlexaFluor 488 goat anti-mouse (Molecular Probes) as secondary antibodies. Images were processed and quantified by using Image Analyst MK II (Novato, Calif.).

HSF-1 RNA = assay: Real time quantitative PCR, hsf-1; type: in vivo, Caenorhabditis elegans; details: 50 μM ThT, 3, 6 and 12 days of treatment
Description: Twelve single adults from control or 50 μM ThT populations were picked after 3, 6 and 12 days of treatment into 5 μl of distilled water and flash frozen until extraction. Individual worms were extracted using the RNeasy Micro Kit, TissueLyser and QIAcube (Qiagen). Using the manufacturer's standard Animal Tissue protocol, each sample was homogenized in buffer RLT/Bme (Qiagen) on the TissueLyser (6 min total at 20 Hz). Samples, reagents and columns were then loaded into the QIAcube robot, and processed using the “RNeasy Micro—Animal tissues and cells—DNase digest” program. Each sample was then eluted in 14 μl of Nuclease-free water. cDNA templates for the Real Time PCR reactions were made using a combination of Message Sensor RT kit (Ambion's) and TaqMan PreAmp Master Mix (Applied Biosystems). The entire worm sample was added to the RT reaction and reversed transcribed at 50° C. for 20 min, using Message Sensor's “Two Step RT-PCR Protocol” (sample RT's were randomized). Then 2.5 μl of the cDNA sample was pre-amplified with a “4×Multiplex Primer Mix” for 14 cycles using TaqMan PreAmp master mix and protocol (ABI). Two modifications were made to ABI's protocol: 1. the reaction volume was reduced to 10 μl and 2. after pre-amplification, each cDNA sample was diluted 1:5 with 1XTE Buffer (Promega). cDNA samples were stored at −20° C. until needed. […]

[2] = test system: UNC-52 (perlecan) in HE250; assay: Perlecan immunolocalization; type: in vivo, Caenorhabditis elegans; details: HE250, 50 μM ThT, 24 h at 25° C.
Description: as §1

[3] = test system: HE250 [unc-52(e669su250)II]; assay: Worm paralysis assay, unc-52 ts mutant; type: in vivo, Caenorhabditis elegans
ZZ26 unc-63(x26)I = details: 50 μM levamisole, after 3 days of treatment
Description: Scoring for paralysis was initiated 2 and 8 days after temperature upshift for CL4176 and AM140, respectively. […] For sensitivity to EtOH or levamisole resistance, CW152 gas-1 (fc21) X and ZZ26 unc-63(x26)I worms were picked into 0.4 M EtOH or 50 μM levamisole, respectively, equilibrated for 5 min, and scored for paralysis as described above. Treated and untreated worms were compared with an unpaired t-test (implemented in Prism 4, Graphpad™ Software, Inc., San Diego, Calif., USA).

[4] = test system: AM140 (rmIs132[P(unc-54) Q35::YFP]); assay: Worm paralysis assay, polyQ model; type: in vivo, Caenorhabditis elegans; details: AM140, 25° C., 8 days; 50 μM ThT, 100 μM curcumin
[5] = test system: N2 worms raised on 1×10^9 cfu/ml; assay: Lifespan under dietary restriction (diluted bacterial food); details: 20° C.
Description: Plates were prepared as described (Chen, D., Thomas, E. L. & Kapahi, P. HIF-1 modulates dietary restriction-mediated lifespan extension via IRE-1 in Caenorhabditis elegans. PLoS Genet. 5, e1000486, (2009), but bacterial concentration was adjusted to 1.0×10^12 cfu/ml and diluted to achieve bacterial concentration of 1.0×10^9 cfu/ml. Diluted bacterial cultures were spotted onto DR agar plates, which were modified from the standard nematode growth media (NGM) plates by excluding peptone and increasing agar from 1.7% to 2.0%. Carbenicillin ([…]) was added to the agar plates to further prevent bacterial growth. Synchronized L4 larvae grown under standard lab conditions (NGM plates with OP50 food, 20° C.) were transferred to fresh DR agar plates in presence or absence of 1, 10, 25, 50 and 100 μM ThT and lifespans scored as described above.

[6] = test system: aggregation-prone soluble oligomeric protein (A11 antibody) in N2; assay: A11 immunolocalization of soluble oligomeric protein, N2; type: in vivo, Caenorhabditis elegans; details: N2, 11 days old, 50 μM ThT
Description: as §1

Cc1ccc2c(c1)sc(-c1ccc(N(C)C)cc1)[n+]2C.[Cl-] [ThT, 4-(3,6-dimethyl-1,3-benzothiazol-3-ium-2-yl)-N,N-dimethylaniline chloride]
SKN-1::GFP nuclear accumulation [1]: no nuclear accumulation
HSF-1 RNA levels (HSF-1 RNA): no changes were detected
perlecan organization [2]: restored perlecan organization
paralysis phenotype, continuous exposure and addition after 18 h at restrictive temperature ([3]; HE250, 50 μM ThT, scored after 36 h at 25° C.): Prevention of paralysis phenotype
paralysis phenotype of unc-52 mutant ([3]; HE250, 25° C., 36 h, 50 μM ThT, 100 μM curcumin, 100 μM rifampicin): suppressed paralysis; also recorded: Protection
levamisole resistance (ZZ26 unc-63(x26)I): increases levimisole resistance
proportion of paralyzed worms [4]: significantly decrease the proportion of paralyzed worms
lifespan in bacterial dilution DR model ([5]; 50 μM ThT): detrimental to lifespan
increase in lifespan in bacterial dilution DR model ([5]; 1 and 10 μM ThT): 24%
A11-positive oligomeric material [6]: significantly decreased
